Source: paper PMC12285154, “New insights into the 17β-hydroxysteroid dehydrogenase type 10 and amyloid-β 42 derived cytotoxicity relevant to Alzheimer’s disease” (Alzheimer's Research & Therapy, 2025)
pIC50, pKd: −log10 of the molar value.

Assays:
[1] = target: T1, 17β-hydroxysteroid dehydrogenase type 10 (HSD10) (Homo sapiens, UniProt Q99714); experiment: (-)-CHANA fluorogenic probe turnover in HSD10-overexpressing HEK293 cells; type: cell-based
T1 construct: gene HSD17B10; HSD10 overexpressed in HEK293 cells
T1 sequence (Q99714 2-261): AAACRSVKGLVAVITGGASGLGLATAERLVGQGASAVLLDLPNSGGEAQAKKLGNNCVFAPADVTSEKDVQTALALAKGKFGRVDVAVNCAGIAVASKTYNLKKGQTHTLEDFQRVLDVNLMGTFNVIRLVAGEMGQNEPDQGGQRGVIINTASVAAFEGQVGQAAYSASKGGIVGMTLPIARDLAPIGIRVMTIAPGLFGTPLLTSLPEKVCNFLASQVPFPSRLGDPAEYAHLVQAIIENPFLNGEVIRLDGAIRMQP

[2] = target: amyloid-β 42 Aβ1-42 (Homo sapiens) (UniProt P05067); settings: cited from earlier work
Chain of amyloid-β 42 Aβ1-42 (Homo sapiens) (P05067 1-42): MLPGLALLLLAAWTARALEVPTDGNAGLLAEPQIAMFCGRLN

Row | Compound | pIC50 [1] | pKd [2]
1 | O=C(C(c1ccccc1)n1cnc2[nH]ncc2c1=S)N1CCCCCC1 (stereo not drawn) [AG18051] | 6.72 | 
2 | COc1ccc2nc(NC(=O)c3ccc(O)c(Cl)c3)sc2c1 [compound 34, inhibitor 34] | 5.37 | 
3 | HSD10 (from UniProt Q99714) |  | 7.25
